The kinase profiling compilation of Christmann-Franck et al. (2016)

What was measured:
Test in all cases: radiometric filter-binding kinase assay, Kinase HotSpot
Conditions in all cases: compound 0.5 µM; ATP 10 µM
[1] = target: MAP4K2 (human) (UniProt Q12851)
[2] = target: TGFBR2 (human) (UniProt P37173)
[3] = target: MAPK8 (human) (UniProt P45983)
[4] = target: AKT2 (human) (UniProt P31751)
[5] = target: PRKCI (human) (UniProt P41743)
[6] = target: FGFR3 (human) (UniProt P22607)
[7] = target: CSNK1G2 (human) (UniProt P78368)
[8] = target: PIM1 (human) (UniProt P11309)
[9] = target: PDGFRB (human) (UniProt P09619)
[10] = target: CHEK1 (human) (UniProt O14757)
[11] = target: IKBKE (human) (UniProt Q14164)
[12] = target: PAK7 (human) (UniProt Q9P286)
[13] = target: MAP3K5 (human) (UniProt Q99683)
[14] = target: TSSK2 (human) (UniProt Q96PF2)
[15] = target: PNCK (human) (UniProt Q6P2M8)
[16] = target: FLT1 (human) (UniProt P17948)
[17] = target: AKT1 (human) (UniProt P31749)
[18] = target: RET (human) (UniProt P07949)
[19] = target: MAPK9 (human) (UniProt P45984)
[20] = target: MAP3K9 (human) (UniProt P80192)
[21] = target: PLK1 (human) (UniProt P53350)
[22] = target: HIPK2 (human) (UniProt Q9H2X6)
[23] = target: TXK (human) (UniProt P42681)
[24] = target: PRKCA (human) (UniProt P17252)
[25] = target: MLTK (human) (UniProt Q9NYL2)
[26] = target: MINK1 (human) (UniProt Q8N4C8)
[27] = target: PAK6 (human) (UniProt Q9NQU5)
[28] = target: ULK2 (human) (UniProt Q8IYT8)
[29] = target: HIPK1 (human) (UniProt Q86Z02)
[30] = target: MAPK3 (human) (UniProt P27361)
[31] = target: MAPK1 (human) (UniProt P28482)
[32] = target: EPHA3 (human) (UniProt P29320)
[33] = target: FES (human) (UniProt P07332)
[34] = target: EPHB4 (human) (UniProt P54760)
[35] = target: PIM2 (human) (UniProt Q9P1W9)
[36] = target: SYK (human) (UniProt P43405)
[37] = target: FRK (human) (UniProt P42685)
[38] = target: PBK (human) (UniProt Q96KB5)
[39] = target: RPS6KA2 KD1 KD2 (human) (UniProt Q15349)
[40] = target: EPHA7 (human) (UniProt Q15375)
[41] = target: EPHB3 (human) (UniProt P54753)
[42] = target: MAP3K10 (human) (UniProt Q02779)

PRKCI (human), sequence (P41743 whole entry, looked up): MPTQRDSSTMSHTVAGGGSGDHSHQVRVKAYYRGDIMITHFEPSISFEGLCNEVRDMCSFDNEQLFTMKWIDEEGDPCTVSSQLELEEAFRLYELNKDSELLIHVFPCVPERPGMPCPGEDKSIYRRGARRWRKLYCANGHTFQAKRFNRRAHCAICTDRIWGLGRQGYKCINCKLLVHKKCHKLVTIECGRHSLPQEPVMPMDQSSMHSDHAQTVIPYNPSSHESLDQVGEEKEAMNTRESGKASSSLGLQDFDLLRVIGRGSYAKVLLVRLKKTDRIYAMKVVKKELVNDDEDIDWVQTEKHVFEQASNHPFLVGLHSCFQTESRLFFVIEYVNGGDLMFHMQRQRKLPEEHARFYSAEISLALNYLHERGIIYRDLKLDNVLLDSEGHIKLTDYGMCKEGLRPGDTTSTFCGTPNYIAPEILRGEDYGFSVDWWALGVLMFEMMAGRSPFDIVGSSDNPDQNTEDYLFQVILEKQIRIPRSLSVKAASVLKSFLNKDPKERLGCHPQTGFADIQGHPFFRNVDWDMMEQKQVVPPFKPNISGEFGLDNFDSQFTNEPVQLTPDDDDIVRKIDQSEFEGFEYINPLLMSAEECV
FLT1 (human), sequence (P17948 whole entry, looked up): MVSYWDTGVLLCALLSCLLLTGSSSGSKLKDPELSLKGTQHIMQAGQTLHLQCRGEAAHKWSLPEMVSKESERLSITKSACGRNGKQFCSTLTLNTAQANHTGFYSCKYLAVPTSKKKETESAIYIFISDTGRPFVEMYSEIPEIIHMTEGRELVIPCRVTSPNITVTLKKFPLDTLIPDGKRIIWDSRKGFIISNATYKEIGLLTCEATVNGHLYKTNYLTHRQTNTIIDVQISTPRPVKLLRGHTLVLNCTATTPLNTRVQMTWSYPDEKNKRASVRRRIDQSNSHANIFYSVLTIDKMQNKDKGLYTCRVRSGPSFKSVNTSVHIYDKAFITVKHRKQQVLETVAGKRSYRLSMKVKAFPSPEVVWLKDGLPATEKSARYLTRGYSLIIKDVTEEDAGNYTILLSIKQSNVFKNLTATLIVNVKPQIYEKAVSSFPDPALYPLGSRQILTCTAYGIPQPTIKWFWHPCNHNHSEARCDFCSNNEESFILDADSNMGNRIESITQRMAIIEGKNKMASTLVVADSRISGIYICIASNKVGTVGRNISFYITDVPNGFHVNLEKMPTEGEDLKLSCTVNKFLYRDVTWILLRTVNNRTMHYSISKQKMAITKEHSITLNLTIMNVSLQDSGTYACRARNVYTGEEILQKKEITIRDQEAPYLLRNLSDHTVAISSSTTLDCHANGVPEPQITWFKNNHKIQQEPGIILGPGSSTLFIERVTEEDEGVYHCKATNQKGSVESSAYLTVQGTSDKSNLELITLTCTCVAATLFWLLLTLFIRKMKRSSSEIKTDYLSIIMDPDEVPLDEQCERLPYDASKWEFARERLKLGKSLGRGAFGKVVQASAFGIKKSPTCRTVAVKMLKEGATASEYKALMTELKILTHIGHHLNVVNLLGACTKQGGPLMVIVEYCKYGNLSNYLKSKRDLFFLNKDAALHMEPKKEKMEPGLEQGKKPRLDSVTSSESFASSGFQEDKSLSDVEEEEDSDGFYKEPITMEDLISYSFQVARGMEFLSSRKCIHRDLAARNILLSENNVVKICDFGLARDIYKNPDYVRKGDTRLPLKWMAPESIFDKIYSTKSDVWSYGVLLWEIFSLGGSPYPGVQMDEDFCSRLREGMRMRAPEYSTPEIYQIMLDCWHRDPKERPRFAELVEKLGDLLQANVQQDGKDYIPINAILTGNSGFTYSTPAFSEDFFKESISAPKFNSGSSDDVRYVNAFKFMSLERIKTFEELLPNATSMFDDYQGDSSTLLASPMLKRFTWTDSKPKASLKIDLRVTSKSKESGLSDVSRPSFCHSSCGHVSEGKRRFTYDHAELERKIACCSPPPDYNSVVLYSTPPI
PNCK (human), sequence (Q6P2M8 whole entry, looked up): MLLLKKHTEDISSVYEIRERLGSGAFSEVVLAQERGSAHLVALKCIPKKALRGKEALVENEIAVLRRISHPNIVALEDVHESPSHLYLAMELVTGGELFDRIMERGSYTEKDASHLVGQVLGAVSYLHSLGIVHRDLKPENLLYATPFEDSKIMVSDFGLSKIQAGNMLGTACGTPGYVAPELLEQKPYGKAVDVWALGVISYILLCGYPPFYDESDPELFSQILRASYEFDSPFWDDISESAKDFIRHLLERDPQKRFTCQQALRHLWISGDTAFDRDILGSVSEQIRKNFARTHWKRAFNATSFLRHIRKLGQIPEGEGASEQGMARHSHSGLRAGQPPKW
PAK6 (human), sequence (Q9NQU5 whole entry, looked up): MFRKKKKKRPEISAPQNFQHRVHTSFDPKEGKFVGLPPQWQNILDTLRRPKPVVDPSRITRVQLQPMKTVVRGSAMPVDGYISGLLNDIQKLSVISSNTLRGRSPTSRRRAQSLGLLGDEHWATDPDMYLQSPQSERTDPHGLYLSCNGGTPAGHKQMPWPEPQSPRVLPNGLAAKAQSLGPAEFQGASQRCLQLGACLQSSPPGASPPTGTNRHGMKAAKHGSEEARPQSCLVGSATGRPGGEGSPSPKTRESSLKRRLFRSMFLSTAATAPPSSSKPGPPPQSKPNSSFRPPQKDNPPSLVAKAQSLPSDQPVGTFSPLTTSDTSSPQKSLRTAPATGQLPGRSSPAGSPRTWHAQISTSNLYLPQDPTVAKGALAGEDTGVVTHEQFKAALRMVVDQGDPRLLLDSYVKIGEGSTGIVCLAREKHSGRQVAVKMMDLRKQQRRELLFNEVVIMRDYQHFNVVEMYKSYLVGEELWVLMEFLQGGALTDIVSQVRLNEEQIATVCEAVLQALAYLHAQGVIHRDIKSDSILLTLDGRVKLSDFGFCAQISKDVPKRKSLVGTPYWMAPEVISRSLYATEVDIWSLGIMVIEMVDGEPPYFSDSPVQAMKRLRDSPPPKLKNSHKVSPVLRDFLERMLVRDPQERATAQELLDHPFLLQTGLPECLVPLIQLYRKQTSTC
TSSK2 (human), sequence (Q96PF2 whole entry, looked up): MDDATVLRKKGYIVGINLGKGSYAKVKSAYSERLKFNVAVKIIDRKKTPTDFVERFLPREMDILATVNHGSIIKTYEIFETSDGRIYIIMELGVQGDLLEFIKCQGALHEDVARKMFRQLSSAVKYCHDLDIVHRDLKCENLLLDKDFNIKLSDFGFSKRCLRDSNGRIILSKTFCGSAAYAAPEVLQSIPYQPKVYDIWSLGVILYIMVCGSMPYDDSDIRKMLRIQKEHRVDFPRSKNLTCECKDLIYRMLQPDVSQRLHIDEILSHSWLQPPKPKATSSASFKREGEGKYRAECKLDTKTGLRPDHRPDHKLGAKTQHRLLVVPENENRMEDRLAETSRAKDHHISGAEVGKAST
PDGFRB (human), sequence (P09619 whole entry, looked up): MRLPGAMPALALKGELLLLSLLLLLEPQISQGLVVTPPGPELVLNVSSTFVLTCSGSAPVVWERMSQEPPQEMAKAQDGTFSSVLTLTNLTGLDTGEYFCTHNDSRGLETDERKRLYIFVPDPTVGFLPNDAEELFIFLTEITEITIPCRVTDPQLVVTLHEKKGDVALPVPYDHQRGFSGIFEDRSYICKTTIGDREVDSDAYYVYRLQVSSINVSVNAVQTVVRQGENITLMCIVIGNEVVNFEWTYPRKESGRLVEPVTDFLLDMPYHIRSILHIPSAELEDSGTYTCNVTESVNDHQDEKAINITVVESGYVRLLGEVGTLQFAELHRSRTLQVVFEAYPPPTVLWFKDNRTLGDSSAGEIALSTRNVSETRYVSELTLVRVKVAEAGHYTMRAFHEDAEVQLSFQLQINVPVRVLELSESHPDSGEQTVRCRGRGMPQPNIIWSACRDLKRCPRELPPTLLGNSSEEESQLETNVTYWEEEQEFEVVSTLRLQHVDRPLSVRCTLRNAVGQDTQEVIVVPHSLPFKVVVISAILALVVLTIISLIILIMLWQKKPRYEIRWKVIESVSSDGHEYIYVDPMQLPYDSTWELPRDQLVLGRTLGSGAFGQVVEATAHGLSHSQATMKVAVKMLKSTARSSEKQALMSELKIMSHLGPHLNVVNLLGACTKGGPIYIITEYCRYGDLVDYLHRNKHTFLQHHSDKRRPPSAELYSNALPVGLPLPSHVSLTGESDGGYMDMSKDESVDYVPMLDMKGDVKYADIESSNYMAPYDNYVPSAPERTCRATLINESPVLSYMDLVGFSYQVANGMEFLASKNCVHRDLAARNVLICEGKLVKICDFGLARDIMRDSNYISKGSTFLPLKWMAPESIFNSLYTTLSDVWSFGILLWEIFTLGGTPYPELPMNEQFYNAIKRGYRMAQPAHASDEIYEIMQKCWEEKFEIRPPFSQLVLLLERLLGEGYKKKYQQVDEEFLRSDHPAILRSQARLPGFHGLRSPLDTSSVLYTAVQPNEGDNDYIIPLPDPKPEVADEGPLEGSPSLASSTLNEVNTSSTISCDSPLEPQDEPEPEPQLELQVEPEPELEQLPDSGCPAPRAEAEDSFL
PBK (human), sequence (Q96KB5 whole entry, looked up): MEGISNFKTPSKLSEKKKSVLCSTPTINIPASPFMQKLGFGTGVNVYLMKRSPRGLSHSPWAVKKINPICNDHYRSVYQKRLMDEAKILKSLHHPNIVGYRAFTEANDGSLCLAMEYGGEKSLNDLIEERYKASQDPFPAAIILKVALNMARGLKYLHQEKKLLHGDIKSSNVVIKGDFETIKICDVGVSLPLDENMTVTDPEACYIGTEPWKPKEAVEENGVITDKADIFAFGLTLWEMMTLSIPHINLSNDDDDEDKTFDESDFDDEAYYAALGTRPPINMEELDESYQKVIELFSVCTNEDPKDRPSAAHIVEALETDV

With `Cc1nc(-c2ccccc2)c(-c2ccncc2)o1` the residual activity [1] was 106%, the residual activity [2] was 133% and the residual activity [3] was 99.5%. For the same molecule, the residual activity [4] was 96.7%, the residual activity [5] was 101% and the residual activity [6] was 95.6%. The residual activity [7] was 92.2%, the residual activity [8] was 105% and the residual activity [9] was 109%. It also gave a residual activity [10] of 106%, a residual activity [11] of 102% and a residual activity [12] of 96.1%. It also gave a residual activity [13] of 102%, a residual activity [14] of 90.1% and a residual activity [15] of 96.6%. The residual activity [16] was 79.4%, the residual activity [17] was 102% and the residual activity [18] was 97.5%. It also gave a residual activity [19] of 98.2%, a residual activity [20] of 79.4% and a residual activity [21] of 104%. For the same molecule, the residual activity [22] was 95.5%, the residual activity [23] was 99.4% and the residual activity [24] was 98.3%. For the same molecule, the residual activity [25] was 89%, the residual activity [26] was 97.9% and the residual activity [27] was 103%. For the same molecule, the residual activity [28] was 102%, the residual activity [29] was 102% and the residual activity [30] was 103%. It also gave a residual activity [31] of 90.3%, a residual activity [32] of 109% and a residual activity [33] of 101%. It also gave a residual activity [34] of 84.8%, a residual activity [35] of 110% and a residual activity [36] of 99.1%. For the same molecule, the residual activity [37] was 103%, the residual activity [38] was 110% and the residual activity [39] was 93%. For the same molecule, the residual activity [40] was 91.5%, the residual activity [41] was 99.2% and the residual activity [42] was 101%.

Work on `Cn1c2ccccc2c2c3c(c4c5ccccc5n(CCC#N)c4c21)CNC3=O` yielded a residual activity [1] of 5.68%, a residual activity [2] of 117% and a residual activity [3] of 78.7%. It also gave a residual activity [4] of 110%, a residual activity [5] of 91.6% and a residual activity [6] of 76.7%. For the same molecule, the residual activity [7] was 105%, the residual activity [8] was 36.1% and the residual activity [9] was 60.6%. For the same molecule, the residual activity [10] was 7.95%, the residual activity [11] was 69.4% and the residual activity [12] was 37.1%. For the same molecule, the residual activity [13] was 49.8%, the residual activity [14] was 74.3% and the residual activity [15] was 103%. It also gave a residual activity [16] of 63.6%, a residual activity [17] of 108% and a residual activity [18] of 0.516%. The residual activity [19] was 86%, the residual activity [20] was 1.49% and the residual activity [21] was 103%. The residual activity [22] was 97.8%, the residual activity [23] was 6.39% and the residual activity [24] was 7.58%. It also gave a residual activity [25] of 86.6%, a residual activity [26] of 2.48% and a residual activity [27] of 20.4%. The residual activity [28] was 92.9%, the residual activity [29] was 81.1% and the residual activity [30] was 72.6%. It also gave a residual activity [31] of 104%, a residual activity [32] of 97.9% and a residual activity [33] of 78.4%. The residual activity [34] was 96.3%, the residual activity [35] was 101% and the residual activity [36] was 14.6%. For the same molecule, the residual activity [37] was 84.7%, the residual activity [38] was 84.2% and the residual activity [39] was 0.299%. It also gave a residual activity [40] of 62.6%, a residual activity [41] of 87.2% and a residual activity [42] of 25.8%.
